From US20210253562A1, “ACYLSUFONAMIDE COMPOUNDS USEFUL AS EP3 RECEPTOR ANTAGONISTS” (Janssen Pharmaceutica NV, priority 2018, published 2021) come the findings set out here.

The target of test [1] is T1, CHO cells over-expressing the EP3 receptor (Homo sapiens, UniProt P43115).
T1 construct: expressed in transfected cells; host or cells: CHO cells
T1 sequence (P43115 1-390): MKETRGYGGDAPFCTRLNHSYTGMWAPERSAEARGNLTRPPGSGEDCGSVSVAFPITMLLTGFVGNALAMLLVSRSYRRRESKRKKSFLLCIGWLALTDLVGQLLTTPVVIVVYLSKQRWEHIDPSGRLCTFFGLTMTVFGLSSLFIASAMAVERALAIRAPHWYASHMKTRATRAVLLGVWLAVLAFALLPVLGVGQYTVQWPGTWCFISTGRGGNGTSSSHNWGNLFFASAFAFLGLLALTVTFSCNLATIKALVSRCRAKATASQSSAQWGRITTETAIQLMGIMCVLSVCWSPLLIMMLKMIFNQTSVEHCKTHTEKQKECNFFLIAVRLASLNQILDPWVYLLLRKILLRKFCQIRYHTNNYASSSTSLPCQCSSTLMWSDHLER
Nature of the test: CHO cell cAMP assay; EP3 cAMP antagonist dose response (sulprostone reference), HTRF. As to conditions: sulprostone 700 nM (EC80) and FSK 2 μM (EC70); read-out: CHO_cAMP IC50. In kind it is cell-based. As to the method:
Biological Example 2: CHO Cell cAMP Assay
This assay monitored the cAMP generation in CHO cells over-expressing the EP3 receptor in the presence or absence of antagonist stimulated with Forskolin (FSK, CAS No. 66428-89-5) and a known EP3 Agonist (sulprostone, CAS No. 60325-46-4). For detection, a homogeneous competitive immunoassay (Time Resolved Fluorescence Energy Transfer (hTR-FRET)) was used.
Cells (6K cells per well) were plated in Poly-D-Lysine coated plates the day before the assay was to be run and were incubated at 37° C. One hour before the assay the media was removed and replaced with assay buffer (500 mL HBSS (+Ca)+2.5 mL 1M HEPES+6.66 mL 7.5% BSA) (starved at 37° C.). At the start of the assay the buffer was removed from the cells and replaced with buffer containing test compound(s). Sulprostone at an EC80 dose (700 nM) and FSK at an EC70 dose (2 μM) were added to initiate the reaction (37° C. for 30 minutes).
FSK increases cAMP production and sulprostone decreases cAMP production produced by FSK. In this assay, EP3 antagonists will increase the cAMP to the level of cAMP generated by FSK alone.
The reaction was terminated with the addition of cAMP detection reagents (labeled cAMP and labeled cAMP antibody in lysis buffer (HTRF reagent, which utilizes a cryptate-labeled anti-cAMP and d2-labeled cAMP-d2 is an HTRF acceptor fluorophore)). Approximately one hour later the plates were read on an Envision (Perkin Elmer) in HTRF mode. Well results were calculated based on a ratio of counts at 665 nm and 615 nm (data output was a calculation of the ratio: (read @665 nm/read @ 615 nm)*1000. For test compounds dosed serially, well results were converted to nM cAMP using a cAMP standard run on each plate. nM cAMP from a set of wells dosed with test compound(s) were plotted. nM cAMP was calculated for each well from a standard curve located on each plate (P1-12 and P13-24) by first calculating the slope and deriving the intercept(b):
[formula] NScAMP_s tan dard_cruve=m(nM cAMP_s tan dard_curve)+b
NSP, NSN, NSsample were converted to nM cAMP using the following equation: […]
IC50 values were determined from a […] (Hill equation) of a single 11-point compound dosing. A best-fit curve was determined by the minimum sum of squares method plotting cAMP produced vs compound concentration.
In general terms: cAMP levels reflect the balance of adenylyl cyclase and phosphodiesterase activity.

Test [2] deals with T2, EP3 membrane (EP3 receptor) (Homo sapiens, UniProt P43115).
T2 construct: purchased Millipore HTS092M
T2 sequence (P43115 1-390): T1 sequence (P43115 1-390)
Nature of the test: [3H]-PGE2 binding; EP3 competition binding (SPA). In outline: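 SPA competition at room temperature, 2 h: EP3 membranes 2 μg/well, 2 nM [3H]-PGE2, 0.1% DMSO, in Tris/MgCl2/EDTA buffer pH 7.4. Compounds in 1:3 serial dilution; scintillation read; Ki by one-site nonlinear fit.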

Where two headings read alike, the source gives them in different places. Bounds are passed on as bounds.

Turning to `O=C(C/C=C1\CCCc2cnn(Cc3ccc(Cl)cc3Cl)c21)NS(=O)(=O)c1ccc2c(c1)OCCO2` [Compound #18, (E)-3-(1-(2,4-dichlorobenzyl)-1,4,5,6-tetrahydro-7H-indazol-7-ylidene)-N-((2,3-dihydrobenzo[b][1,4]dioxin-6-yl)sulfonyl)propenamide], in test [1], the IC50 (usually the midpoint of a concentration-inhibition curve) was 662 nM. Besides, the Ki (in general, the dissociation constant of the complex between target and ligand, obtained from inhibition or displacement) in test [2] was 147 nM.
In the same order, the values of `O=C(NS(=O)(=O)c1ccc(Cl)cc1)OC/C=C1\CC(F)(F)Cc2cnn(Cc3ccc(Cl)cc3Cl)c21` [Compound #37, (E)-2-(1-(2,4-dichlorobenzyl)-5,5-difluoro-1,4,5,6-tetrahydro-7H-indazol-7-ylidene)ethyl ((4-chlorophenyl)sulfonyl)carbamate] are 87 nM and 108 nM.
In the same order, the values of `O=C(NC/C=C1\CCCc2cnn(-c3ccc(Cl)cc3Cl)c21)NS(=O)(=O)c1cc(Cl)c(Cl)s1` [Compound #84, (E)-4,5-dichloro-N-((2-(1-(2,4-dichlorophenyl)-1,4,5,6-tetrahydro-7H-indazol-7-ylidene)ethyl)carbamoyl)thiophene-2-sulfonamide] are 5 nM and 1 nM.
In the same order, the values of `COc1ccc(Cn2ncc3c2/C(=C(\F)CNC(=O)NS(=O)(=O)c2cc(Cl)c(Cl)s2)CCC3)cn1` [Compound #141, (Z)-4,5-dichloro-N-((2-fluoro-2-(1-((6-methoxypyridin-3-yl)methyl)-1,4,5,6-tetrahydro-7H-indazol-7-ylidene)ethyl)carbamoyl)thiophene-2-sulfonamide] are 750 nM and 215 nM.
Consider `O=C(C/C(F)=C1\CCCc2cnn(Cc3ccc(Cl)cc3Cl)c21)NS(=O)(=O)c1cc(Cl)c(Cl)s1` [Compound #93, (Z)-3-(1-(2,4-dichlorobenzyl)-1,4,5,6-tetrahydro-7H-indazol-7-ylidene)-N-((4,5-dichlorothiophen-2-yl)sulfonyl)-3-fluoropropanamide], for which the IC50 in test [1] turned out to be 17 nM. This compound returned a Ki in test [2] of 6 nM.
The corresponding values for `O=C(NC/C(F)=C1\CCc2cnn(Cc3ccc(Cl)cc3Cl)c21)NS(=O)(=O)c1cc(Cl)c(Cl)s1` [Compound #136, (Z)-4,5-dichloro-N-((2-(1-(2,4-dichlorobenzyl)-4,5-dihydro-cyclopenta[c]pyrazol-6(1H)-ylidene)-2-fluoroethyl)carbamoyl)thiophene-2-sulfonamide] are 46 nM and 5 nM.
Take `O=C(NC/C(F)=C1\CCCCc2cnn(Cc3ccc(Cl)cc3Cl)c21)NS(=O)(=O)c1cc(Cl)c(Cl)s1` [Compound #120, (Z)-4,5-dichloro-N-((2-(1-(2,4-dichlorobenzyl)-4,5,6,7-tetrahydrocyclohepta[c]pyrazol-8(1H)-ylidene)-2-fluoroethyl)carbamoyl)thiophene-2-sulfonamide]: the IC50 in test [1] came to 12 nM. This compound also yielded a Ki in test [2] of 10 nM.
In the same order, the values of `O=C(C/C=C1\CCCc2cnn(Cc3ccc(Cl)cc3Cl)c21)NS(=O)(=O)c1cnc2ccccc2c1` [Compound #22, (E)-3-(1-(2,4-dichlorobenzyl)-1,4,5,6-tetrahydro-7H-indazol-7-ylidene)-N-(quinolin-3-ylsulfonyl)propenamide] are 2900 nM and 373 nM.
In the same order, the values of `Cc1nn(Cc2ccc(Cl)cc2Cl)c2c1CCC/C2=C(/F)CNC(=O)NS(=O)(=O)c1cc(Cl)c(Cl)s1` [Compound #109, (Z)-4,5-dichloro-N-((2-(1-(2,4-dichlorobenzyl)-3-methyl-1,4,5,6-tetrahydro-7H-indazol-7-ylidene)-2-fluoroethyl)carbamoyl)thiophene-2-sulfonamide] are 60 nM and 7 nM.
For `COc1ccc(Cl)cc1S(=O)(=O)NC(=O)NC/C=C1\COCc2cnn(Cc3ccc(Cl)cc3Cl)c21` [Compound #66, (Z)-5-chloro-N-((2-(1-(2,4-dichlorobenzyl)-1,4-dihydropyrano[4,3-c]pyrazol-7(6H)-ylidene)ethyl)carbamoyl)-2-methoxybenzenesulfonamide], in test [1], the IC50 is 21 nM. The Ki in test [2] worked out at 4 nM.
The corresponding values for `Cn1cc(S(=O)(=O)NC(=O)NC/C=C2\CCCc3cnn(Cc4ccc(Cl)cc4Cl)c32)cn1` [Compound #152, (E)-N-((2-(1-(2,4-dichlorobenzyl)-1,4,5,6-tetrahydro-7H-indazol-7-idene)ethyl)carbamoyl)-1-methyl-1H-pyrazole-4-sulfonamide] are 8 nM and 9 nM.
Turning to `CN(C/C(F)=C1\CCCc2cnn(Cc3ccc(Cl)cc3Cl)c21)C(=O)NS(=O)(=O)c1cc(Cl)c(Cl)s1` [Compound #59, (Z)-4,5-dichloro-N-((2-(1-(2,4-dichlorobenzyl)-1,4,5,6-tetrahydro-7H-indazol-7-ylidene)-2-fluoroethyl)(methyl)carbamoyl)thiophene-2-sulfonamide], in test [1], the IC50 is 12 nM. The affinity in test [2], expressed as Ki, was 5 nM.
The corresponding values for `O=C(NC/C(F)=C1\CCCc2cnn(-c3ccc(C(F)(F)F)cc3)c21)NS(=O)(=O)c1cc(Cl)c(Cl)s1` [Compound #125, (Z)-4,5-dichloro-N-((2-fluoro-2-(1-(4-(trifluoromethyl)phenyl)-1,4,5,6-tetrahydro-7H-indazol-7-ylidene)ethyl)carbamoyl)thiophene-2-sulfonamide] are 20 nM and 3 nM.
The corresponding values for `COc1ccc(Cl)cc1S(=O)(=O)NC(=O)NC/C(F)=C1/c2c(cnn2Cc2ccc(Cl)cc2Cl)CCC1F` (centres unmarked) [Compound #103, (E)-5-chloro-N-((2-(1-(2,4-dichlorobenzyl)-6-fluoro-1,4,5,6-tetrahydro-7H-indazol-7-ylidene)-2-fluoroethyl)carbamoyl)-2-methoxybenzenesulfonamide] are 228 nM and 54 nM.
The corresponding values for `O=C(NC/C=C1\CC(F)(F)Cc2cnn(-c3cccc(C(F)(F)F)c3)c21)NS(=O)(=O)c1ccc(Cl)cc1` [Compound #70, (E)-4-chloro-N-((2-(5,5-difluoro-1-(3-(trifluoromethyl)phenyl)-1,4,5,6-tetrahydro-7H-indazol-7-ylidene)ethyl)carbamoyl)benzenesulfonamide] are 8200 nM and 1000 nM.
On to `O=C(CC/C=C1\CCCc2cnn(Cc3ccc(Cl)cc3Cl)c21)NS(=O)(=O)c1cc(Cl)c(Cl)s1` [Compound #8, (E)-4-(1-(2,4-dichlorobenzyl)-1,4,5,6-tetrahydro-7H-indazol-7-ylidene)-N-((4,5-dichlorothiophen-2-yl)sulfonyl)butanamide], for which, in test [1], the IC50 was found to be 2 nM. The Ki in test [2] (unit nM) turned out to be 0.1 nM.
For `COc1ccc(F)cc1S(=O)(=O)NC(=O)NC/C(F)=C1/CCCc2cnn(-c3ccc4ccccc4c3)c21` [Compound #112, (E)-5-fluoro-N-((2-fluoro-2-(1-(naphthalen-2-yl)-1,4,5,6-tetrahydro-7H-indazol-7-ylidene)ethyl)carbamoyl)-2-methoxybenzenesulfonamide], the IC50 in test [1] was > 20000 nM. Further, the Ki in test [2] is > 10000 nM.
In the same order, the values of `COc1ccc(S(=O)(=O)NC(=O)C/C=C2\CCCc3cnn(Cc4ccc(Cl)cc4Cl)c32)cc1` [Compound #23, (E)-3-(1-(2,4-dichlorobenzyl)-1,4,5,6-tetrahydro-7H-indazol-7-ylidene)-N-((4-methoxyphenyl)sulfonyl)propenamide] are 453 nM and 256 nM.
The corresponding values for `COc1ccc(S(=O)(=O)NC(=O)NC/C(F)=C2\CCCc3cnn(Cc4ccc(Cl)cc4Cl)c32)cc1Cl` [Compound #143, (Z)-3-chloro-N-((2-(1-(2,4-dichlorobenzyl)-1,4,5,6-tetrahydro-7H-indazol-7-ylidene)-2-fluoroethyl)carbamoyl)-4-methoxybenzenesulfonamide] are 18 nM and 3 nM.
